The target of test [1] is T1, CSF1R (Mus musculus, UniProt P09581).
T1 construct: endogenous in cells; host or cells: mouse bone-marrow-derived macrophages (BMDMs)
Nature of the test: Western blot in BMDMs, ligand-dependent phosphorylation. It counts as cell-based. The settings on record: 2 h treatment, CSF1 100 ng/mL 15 min. Here is the method:
(§1) HCT116, LS513, SW620, HUVECs, and HT29 cell lines were purchased from the Korean Cell Line Bank (Seoul, Korea). All cell lines were maintained in RPMI or DMEM (Gibco Inc., Billings, MT, USA) supplemented with 10% FBS (Gibco, USA) and penicillin–streptomycin in an incubator at 37 °C and 5% CO2. Bone marrow cells were isolated from the femur and tibia of mice using a single-pass bone marrow aspiration. Cells were cultured in RPMI medium supplemented with 10% FBS and 100 ng/mL CSF1 (Peprotech, Rocky Hill, NJ, USA) for 7 days to differentiate into bone-marrow-derived macrophages (BMDMs).
(§2) In 6-well plates, LS513 cells were seeded and allowed to adhere and proliferate for 24 h. […] After treatment, the cells were harvested using RIPA lysis buffer to extract cellular proteins. The cell lysates were subjected to Western blot analysis. […] The cell lysates were analyzed by Western blot using specific antibodies, such as p-CSF1R (Cell Signaling, #14591S), CSF1R (Cell Signaling, #67455S), p-TIE2 (Cell Signaling, #4221S), and TIE2 (Santa Cruz Biotechnology, Dallas, TX, USA, #sc-293414), to detect and analyze the respective proteins.
On the technique in general: Immunoblotting shows a protein as a band on a membrane.

The target of test [2] is T2, TIE2 (Mus musculus, UniProt Q02858).
T2 construct: endogenous in cells; host or cells: mouse bone-marrow-derived macrophages (BMDMs)
The description is as above. In kind it is cell-based. The settings on record: 2 h treatment, angiopoietin 2 100 ng/mL 15 min. The procedure: as §1, §2

Test [3] has as its system HUVECs. Nature of the test: Tube formation assay. It counts as cell-based, human. The procedure: Cell culture plates were coated with Matrigel at a concentration of 7 mg/mL and incubated at 37 °C for 45 min to allow gel formation. Human umbilical vein endothelial cells (HUVECs) were harvested using trypsin and resuspended in endothelial cell growth medium. Following a 5 h incubation period, the formation of endothelial cell tubes was assessed using an inverted photomicroscope (Nikon, Tokyo, Japan). Microphotographs were taken, and the quantification of tube formation, specifically tube length, was performed. To quantify tube formation, measurements were obtained using ImageJ. The long axis of each tube or single cell, as well as groups of adjacent cells, was measured.

Test [4] has as its system MC38 syngeneic tumor. Nature of the test: In vivo efficacy, syngeneic model. The settings on record: 80 mg/kg po QD. The arrangement: species or system C57BL/6 mice. The procedure:
Human-derived colorectal cancer cell lines, LS513, HCT-116, and HT29, were subcutaneously transplanted into 6-week-old female BALB/c nude mice to establish tumor models. Additionally, the mouse cancer cell line MC38 was subcutaneously transplanted into 6-week-old female and C57BL/6 mice to induce tumor formation. […]. The treatments were administered orally once daily for 2 weeks based on the growth rate observed in the vehicle group. Tumor volume was evaluated three times a week using the formula Tumor volume (TV) = (tumor short diameter ^2 × tumor long diameter)/2. The body weight of the mice was measured three times a week to assess potential toxicity in vivo. […]

Test [5] has as its target CRAF (Homo sapiens, UniProt P04049). The test can be described thus: Eurofins kinase assay.
The target of test [6] is PI3Kinase(p110a(E542K)/p85a)(m) (Mus musculus, UniProt P42337, E542K). The test can be described thus: Eurofins kinase assay.
Test [7] concerns the target PI3Kinase(p110a(E545K)/p85a)(m) (Mus musculus, UniProt P42337, E545K). Nature of the test: Eurofins kinase assay.
Test [8] addresses BTK(h) (Homo sapiens, UniProt Q06187). The test can be described thus: Eurofins kinase assay.
Test [9] deals with CK1δ(h) (Homo sapiens, UniProt P48730). The test can be described thus: Eurofins kinase assay.
The target in test [10] is Rsk1(h) (Homo sapiens, UniProt Q15418). Nature of the test: Eurofins kinase assay.
The target in test [11] is CDK2/cyclinA(h) (Homo sapiens, UniProt P24941). Nature of the test: Eurofins kinase assay.
In test [12] the target is CDK1/cyclinB(h) (Homo sapiens, UniProt P06493). Nature of the test: Eurofins kinase assay.
Test [13] has as its target Rsk1(r) (Rattus norvegicus, UniProt Q63531). The test can be described thus: Eurofins kinase assay.
In test [14] the target is PRAK(h) (Homo sapiens, UniProt Q8IW41). The test can be described thus: Eurofins kinase assay.
Test [15] addresses CDK5/p35(h) (Homo sapiens, UniProt Q00535). Nature of the test: Eurofins kinase assay.
Test [16] has as its target Syk(h) (Homo sapiens, UniProt P43405). The test can be described thus: Eurofins kinase assay.
Test [17] relates to LS513 (KRAS G12D). The test can be described thus: Cell proliferation assay (CellTiter-Glo). Particulars: Homo sapiens, LS-513, 72 h.
Description: (§3) To assess cell viability, the CellTiter-Glo Luminescent Cell Viability Assay Reagent (Promega, Fitchburg, WI, USA) was added to each well. The assay measured ATP levels as an indicator of cell viability. All data points were normalized to the control samples treated with dimethyl sulfoxide when determining IC50 values. Statistical calculations and data analysis, including IC50 determination, were performed using GraphPad Prism software.
The test system of test [18] is HT29 (BRAF V600E). Nature of the test: Cell proliferation assay (CellTiter-Glo). The settings on record: Homo sapiens, HT-29, 72 h. On the technique in general: Cellular ATP, detected with luciferase, serves as a proxy for viable cell number.
Description: as §3

T1 sequence (P09581 20-977): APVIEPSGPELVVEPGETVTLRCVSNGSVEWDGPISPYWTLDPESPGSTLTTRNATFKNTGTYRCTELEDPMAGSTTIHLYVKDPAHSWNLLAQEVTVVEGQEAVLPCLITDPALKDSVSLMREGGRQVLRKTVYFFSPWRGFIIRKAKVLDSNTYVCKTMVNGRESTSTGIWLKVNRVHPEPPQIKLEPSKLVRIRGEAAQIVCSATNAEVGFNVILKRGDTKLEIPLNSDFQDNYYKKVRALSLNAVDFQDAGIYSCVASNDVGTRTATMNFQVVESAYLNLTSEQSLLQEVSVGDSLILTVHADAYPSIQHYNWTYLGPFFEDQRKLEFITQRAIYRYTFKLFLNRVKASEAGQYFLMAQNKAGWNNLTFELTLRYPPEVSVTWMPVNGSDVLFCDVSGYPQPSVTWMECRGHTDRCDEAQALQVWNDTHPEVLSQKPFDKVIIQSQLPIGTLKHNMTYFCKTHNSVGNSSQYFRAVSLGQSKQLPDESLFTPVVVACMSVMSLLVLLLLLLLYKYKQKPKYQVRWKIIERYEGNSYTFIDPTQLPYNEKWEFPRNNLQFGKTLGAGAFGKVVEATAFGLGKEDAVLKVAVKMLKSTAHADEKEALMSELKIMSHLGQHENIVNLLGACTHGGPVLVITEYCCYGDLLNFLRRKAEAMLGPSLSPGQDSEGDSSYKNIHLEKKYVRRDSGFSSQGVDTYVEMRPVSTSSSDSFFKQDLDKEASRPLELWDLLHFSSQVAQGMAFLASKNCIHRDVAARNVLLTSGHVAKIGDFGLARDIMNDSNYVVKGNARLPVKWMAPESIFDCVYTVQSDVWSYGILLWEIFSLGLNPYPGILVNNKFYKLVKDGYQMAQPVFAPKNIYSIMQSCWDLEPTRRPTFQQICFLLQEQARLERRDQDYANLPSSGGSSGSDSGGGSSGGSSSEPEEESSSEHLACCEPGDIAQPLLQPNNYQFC
Sequence of CRAF (P04049 whole entry): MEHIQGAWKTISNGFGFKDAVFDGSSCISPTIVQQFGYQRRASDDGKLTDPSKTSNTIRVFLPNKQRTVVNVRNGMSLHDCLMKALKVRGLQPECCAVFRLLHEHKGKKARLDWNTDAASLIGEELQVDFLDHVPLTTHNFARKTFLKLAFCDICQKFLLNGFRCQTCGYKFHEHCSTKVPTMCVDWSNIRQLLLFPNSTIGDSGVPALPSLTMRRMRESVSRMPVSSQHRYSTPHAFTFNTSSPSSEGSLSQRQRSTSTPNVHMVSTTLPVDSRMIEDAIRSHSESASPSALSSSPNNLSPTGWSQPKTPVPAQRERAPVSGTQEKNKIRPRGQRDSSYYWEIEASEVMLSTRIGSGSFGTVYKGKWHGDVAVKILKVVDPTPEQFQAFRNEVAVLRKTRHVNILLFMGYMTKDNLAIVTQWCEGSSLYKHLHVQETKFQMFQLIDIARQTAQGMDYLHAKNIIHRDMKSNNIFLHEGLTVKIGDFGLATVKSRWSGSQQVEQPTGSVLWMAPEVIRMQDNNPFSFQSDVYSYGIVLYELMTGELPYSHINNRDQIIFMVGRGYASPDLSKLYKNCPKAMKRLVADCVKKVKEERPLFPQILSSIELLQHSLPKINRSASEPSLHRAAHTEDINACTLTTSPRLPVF
Sequence of Rsk1(r) (Q63531 whole entry): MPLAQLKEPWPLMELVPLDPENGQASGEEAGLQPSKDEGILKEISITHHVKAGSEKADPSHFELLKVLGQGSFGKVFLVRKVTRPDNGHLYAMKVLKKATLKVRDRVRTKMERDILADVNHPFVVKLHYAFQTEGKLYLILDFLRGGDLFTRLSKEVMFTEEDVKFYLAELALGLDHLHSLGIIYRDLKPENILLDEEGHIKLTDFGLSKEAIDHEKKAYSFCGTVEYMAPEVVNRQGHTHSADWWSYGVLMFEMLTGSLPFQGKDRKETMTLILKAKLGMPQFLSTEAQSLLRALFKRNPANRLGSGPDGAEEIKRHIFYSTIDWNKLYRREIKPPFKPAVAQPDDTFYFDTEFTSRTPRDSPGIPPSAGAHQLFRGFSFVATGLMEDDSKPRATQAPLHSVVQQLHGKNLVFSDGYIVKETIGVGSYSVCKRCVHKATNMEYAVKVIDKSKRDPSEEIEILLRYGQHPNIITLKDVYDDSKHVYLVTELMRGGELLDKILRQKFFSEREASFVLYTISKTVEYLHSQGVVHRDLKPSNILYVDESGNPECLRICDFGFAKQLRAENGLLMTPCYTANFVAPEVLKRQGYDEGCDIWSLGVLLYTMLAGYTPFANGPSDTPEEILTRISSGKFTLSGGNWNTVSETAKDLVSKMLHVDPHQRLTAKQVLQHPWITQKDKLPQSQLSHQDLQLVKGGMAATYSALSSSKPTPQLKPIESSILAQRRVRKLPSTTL
Sequence of PI3Kinase(p110a(E542K)/p85a)(m) (P42337 whole entry E542K): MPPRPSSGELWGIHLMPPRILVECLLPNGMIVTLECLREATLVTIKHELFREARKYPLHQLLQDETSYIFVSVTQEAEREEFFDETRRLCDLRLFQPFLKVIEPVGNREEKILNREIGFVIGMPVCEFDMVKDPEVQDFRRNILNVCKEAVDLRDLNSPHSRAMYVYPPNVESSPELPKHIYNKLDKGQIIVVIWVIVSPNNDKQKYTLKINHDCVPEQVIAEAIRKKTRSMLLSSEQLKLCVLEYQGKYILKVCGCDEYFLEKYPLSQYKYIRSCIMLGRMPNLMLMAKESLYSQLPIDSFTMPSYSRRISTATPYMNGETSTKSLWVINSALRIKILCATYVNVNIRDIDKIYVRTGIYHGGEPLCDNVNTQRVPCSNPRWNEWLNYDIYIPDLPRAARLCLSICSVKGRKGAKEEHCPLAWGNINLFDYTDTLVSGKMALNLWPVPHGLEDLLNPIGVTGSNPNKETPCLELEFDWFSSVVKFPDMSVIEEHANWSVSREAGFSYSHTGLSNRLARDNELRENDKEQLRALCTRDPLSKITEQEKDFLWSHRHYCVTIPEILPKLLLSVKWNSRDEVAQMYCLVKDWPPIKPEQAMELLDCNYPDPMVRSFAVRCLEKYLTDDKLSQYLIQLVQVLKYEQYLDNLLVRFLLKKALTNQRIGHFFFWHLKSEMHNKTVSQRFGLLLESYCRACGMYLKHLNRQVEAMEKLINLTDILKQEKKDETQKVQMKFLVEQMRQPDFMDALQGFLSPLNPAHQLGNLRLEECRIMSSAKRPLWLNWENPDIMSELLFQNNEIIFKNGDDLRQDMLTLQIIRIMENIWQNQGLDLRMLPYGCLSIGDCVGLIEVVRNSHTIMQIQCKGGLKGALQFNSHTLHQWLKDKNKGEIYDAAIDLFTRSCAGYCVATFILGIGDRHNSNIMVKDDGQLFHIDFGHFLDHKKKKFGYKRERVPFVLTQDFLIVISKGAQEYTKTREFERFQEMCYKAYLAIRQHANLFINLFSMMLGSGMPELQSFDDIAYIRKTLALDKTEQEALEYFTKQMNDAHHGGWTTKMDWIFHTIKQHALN
Sequence of PI3Kinase(p110a(E542K)/p85a)(m) (P26450 2-724 partner): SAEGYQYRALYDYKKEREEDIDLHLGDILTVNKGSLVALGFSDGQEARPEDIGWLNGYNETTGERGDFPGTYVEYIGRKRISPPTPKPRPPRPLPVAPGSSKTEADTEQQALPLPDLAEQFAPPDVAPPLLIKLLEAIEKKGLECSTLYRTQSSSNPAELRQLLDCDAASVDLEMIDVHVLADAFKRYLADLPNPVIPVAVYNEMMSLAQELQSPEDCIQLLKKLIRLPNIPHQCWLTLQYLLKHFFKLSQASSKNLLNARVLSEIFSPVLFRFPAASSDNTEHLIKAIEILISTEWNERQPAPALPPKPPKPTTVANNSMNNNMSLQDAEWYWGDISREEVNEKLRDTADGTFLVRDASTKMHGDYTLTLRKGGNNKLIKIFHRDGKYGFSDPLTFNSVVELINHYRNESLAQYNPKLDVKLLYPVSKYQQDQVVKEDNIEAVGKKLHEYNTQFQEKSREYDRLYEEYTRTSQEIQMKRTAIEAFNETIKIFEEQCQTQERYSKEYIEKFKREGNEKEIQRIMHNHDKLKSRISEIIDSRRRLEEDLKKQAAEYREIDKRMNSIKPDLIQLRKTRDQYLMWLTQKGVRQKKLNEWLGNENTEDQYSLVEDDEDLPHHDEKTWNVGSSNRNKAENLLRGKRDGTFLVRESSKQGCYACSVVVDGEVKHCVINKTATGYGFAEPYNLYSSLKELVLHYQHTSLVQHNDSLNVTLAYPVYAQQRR
Sequence of PI3Kinase(p110a(E545K)/p85a)(m) (P42337 whole entry E545K): as the sequence (P42337 whole entry E542K) above, with K542E, E545K counted along it
Sequence of PI3Kinase(p110a(E545K)/p85a)(m) (P26450 2-724 partner): as the sequence (P26450 2-724 partner) above
Sequence of CDK5/p35(h) (Q00535 whole entry): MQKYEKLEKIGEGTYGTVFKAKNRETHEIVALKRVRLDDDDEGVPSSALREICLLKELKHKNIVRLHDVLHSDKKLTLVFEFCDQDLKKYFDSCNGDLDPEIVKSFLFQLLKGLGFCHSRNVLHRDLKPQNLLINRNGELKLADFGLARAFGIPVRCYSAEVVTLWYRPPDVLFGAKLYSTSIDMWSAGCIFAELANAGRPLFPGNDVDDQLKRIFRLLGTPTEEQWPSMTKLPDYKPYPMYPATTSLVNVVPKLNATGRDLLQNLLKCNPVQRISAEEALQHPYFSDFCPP
Sequence of CDK5/p35(h) (Q15078 whole entry partner): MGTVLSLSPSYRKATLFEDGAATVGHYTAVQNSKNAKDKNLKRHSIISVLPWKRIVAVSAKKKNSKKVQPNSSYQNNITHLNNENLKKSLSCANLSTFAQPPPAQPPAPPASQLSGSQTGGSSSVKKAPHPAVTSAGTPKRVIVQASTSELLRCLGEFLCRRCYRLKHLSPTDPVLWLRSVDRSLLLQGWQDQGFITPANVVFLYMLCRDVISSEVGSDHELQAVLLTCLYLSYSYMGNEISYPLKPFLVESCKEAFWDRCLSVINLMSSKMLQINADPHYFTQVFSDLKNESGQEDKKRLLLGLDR

For orientation: TGI means the reduction of tumour growth relative to the control group. A low value points to a weaker effect on the tumour. One may read the inhibition as the change of the read-out against control, counted positive when it falls. In general, GI50 refers to the concentration giving 50% growth inhibition. A lower GI50 goes with greater sensitivity of the cells. As for `O=C(Nc1cc(Nc2ncccc2-c2ncnc3[nH]cnc23)ccc1F)c1cc(C(F)(F)F)cc(C(F)(F)F)c1` [SJ-C1044, N-(5-(3-(9H-purin-6-yl)pyridin-2-ylamino)-2-fluorophenyl)-3,5-bis(trifluoromethyl)benzamide], the “ligand-dependent phosphorylation of CSF1R” value in test [1] is recorded as “significant inhibitory effects”. In test [2], the “ligand-dependent phosphorylation of TIE2” value was “significant inhibitory effects”. Further, in [3], the “VEGF-stimulated endothelial tube formation” value is “strong activity”. Also, the “VEGF-induced tube formation, compared to LY3009120” value in test [3] (10 μM, 10 nmol/L VEGF) is “more effectively blocked”. Also, the TGI in test [4] (14 days) was found to be 88%. Also, the “MC38 tumor growth in vivo” value in test [4] (compared to the control) was “completely inhibited”. Besides, the inhibition at 10 µM in [5] came to 86%; in [6] it was 24%; in [7], 20%; in test [8] it was 18%; in test [9], 0%; in test [10], 0%. Also, the inhibition at 10 µM in test [11] is -8%; in test [12] it was -10%; in test [13], -12%; in test [14] it was -15%; in [15], -19%; in test [16] it was -26%. Also, the GI50 in [17] turned out to be 290 nM; in [18], 247 nM.
